Reference: patent publication US11370766B2, “Sulfonyl amidine as indoleamine-2,3-dioxygenase inhibitor, and preparation method therefor and use thereof” (SHANGHAI LONGWOOD BIOPHARMACEUTICALS CO., LTD., priority 2016, dated 2022)
Like-named read-outs stand apart in the source and are kept apart here. Each block holds one compound with its values, some of them ahead of it.

What was measured:
IDO1 in Hela cells = target: T1, IDO1 in Hela cells (Homo sapiens, UniProt P14902); assay: IDO cytology test (LC-MS), kynurenine in IFN-gamma-stimulated Hela cells; type: cell-based; settings: interferon gamma 100 ng/mL, 20 h, kynurenine by LC/MS
T1 construct: endogenous in cells; host or cells: Hela cells, IFN-gamma stimulated
Text: 2. IDO Cytology Test Method (LC-MS)
Content of research: the inhibitory effect of the compound on the activity of IDO1 in Hela cells was examined.
RPMI 1640 (phenol red free) medium (Invitrogen Cat. No. 11835030), fetal bovine serum (Invitrogen Cat. No. 10099141), penicillin and streptomycin (Invitrogen Gibco Cat. No. 15140-122), recombinant human interference γ (R&D system, Cat. No. 285-IF-100). 5% (w/v) trichloroacetic acid (Alfa Aesar Cat. No. A11156), DMSO (Sigma, Cat. No. D2650), 96-well plate_compound dilution plate (Axygen, Cat. No. WIPP02280), 96-well plate_test plate (Greiner, Cat. No. 655090)
The test compounds and the reference compound LW3018 were finally tested at concentrations ranging from […] to 0.76 nM, 3-fold gradient dilution, 9 concentrations, and two replicate wells.
Hela cells were plated in 96-well cell culture plates at a number of 40,000 cells per well, and incubated with RPMI 1640 containing 10% fetal bovine serum for 5-6 hours. The diluted test compound and recombinant human interferon gammaa (final concentration at 100 ng/mL) were added to activate IDO1 expression. The cells were cultured in a 37° C. cell incubator which was enriched with 5% carbon dioxide for 20 hours, and the reaction was stopped with 5% trichloroacetic acid and incubated for 30 minutes at 50° C. After the cell culture solution was precipitated, the supernatant was sent to LC/MS to detect the content of kynurenine. Data analysis and mapping was conducted by XLfit5 software.

[1] = Pharmacokinetics of LW105-1-1 in mice; type: in vivo; settings: plasma, male C57BL/6 mice; for AUC(0-t): male, C57BL/6, mouse; for MRT last: read-out: MRT0-last; for bioavailability: after dose standardization, read-out: F% (absolute bioavailability); for Cmax: read-out: Cmax (head printed as image)
Method: 18 male C57BL/6 mice were intragastrically or intravenously administered with compound LW105-1-1 (Table 3).
The preparation containing 5% DMA and 20% HPbCD aqueous solution as a solvent was administered by intravenous injection, and a preparation containing a solution comprising 5% DMA, 20% HPbCD and 0.1% CREMOPHOR EL as a solution was intragastrically administered. The animal strain was male C57BL/6 mice. Prior to the animal experiment, all animals were fasted and fed 4 hours after dosing; all animals were given free access to water.
Intravenous administration group: before administration, 0.083, 0.25, 0.5, 1, 2, 4, 8 and 24 hours after.
Oral administration group: before administration, 0.25, 0.5, 1, 2, 4, 8 and 24 hours after
Whole blood samples (0.03 mL) were collected from the saphenous vein at the indicated time (or other suitable blood collection sites), and all blood samples were added to a plastic centrifuge tube pre-filled with K2-EDTA anticoagulant and labeled. After the blood sample was collected, centrifuged for 10 minutes under 2 to 8° C. at 3000 g, and the supernatant plasma was aspirated, and quickly placed in dry ice, and kept at −20° C. or lower for LC-MS/MS analysis.
The concentrations of all samples were analyzed using LC-MS/MS. Plasma mean concentrations were processed using a non-compartmental model of WinNonlin™ Version 6.3 (Pharsight, Mountain View, Calif.) pharmacokinetic software, and pharmacokinetic parameters were calculated by linear logarithmic trapezoidal method.

[2] = tested on: mouse colorectal cancer CT26 transplanted tumor; assay: In vivo efficacy test of mouse colorectal cancer CT26 transplanted tumor
Method: Example 5 In Vivo Efficacy Test of Mouse Colorectal Cancer CT26 Transplanted Tumor
Under sterile conditions, CT26 cells in the proliferative phase were harvested, cell concentration was adjusted after digestion, and inoculated into the right hind limb of the mouse. Each mouse was inoculated with 1×10^5 CT26 cells in an inoculation volume of 0.1 mL. Four days after the inoculation, the average tumor volume was close to 20-30 mm^3, and the mouse was administered in a randomized group. The day of administration was recorded as DO, and the negative control was given same amount of vehicle. Co-administration of LW 105-1-1 with Anti-CTLA4 antibody was also tested in this experiment. After the administration was started, the tumor long diameter and short diameter were measured 3 times per week.

IDO1 = target: T2, IDO1 (Homo sapiens, UniProt P14902); assay: IDO1 enzyme activity test (NFK Green); type: biochemical; settings: 10 nM IDO1, 100 uM L-tryptophan, NFK green fluorescence; read-out: IDO IC50
T2 construct: purchased NTRC NTRC-hTDO-1K
Method: 1. IDO1 Enzyme Activity Test Method (NFK Green)
Content of research: the inhibitory effect of the compound on the activity of IDO1 enzyme was examined.
IDO assay kit (NTRC, Cat. No. NTRC-hTDO-1K), DMSO (Sigma, Cat. No. D2650), 384-well plate_compound dilution plate (Greiner, Cat. No. 781280), 384-well plate_test plate (Perkin Elmer, Cat. No. 6007299)
10 nM IDO1 was incubated with compound or DMSO at 23° C. for 30 minutes, and L-type tryptophan was added at a final concentration of 100 uM and reacted for 1.5 hours. NFK green was added and incubated at 37° C. for 4 hours, and fluorescence signal data (excitation band, 400/25; emission band, 510/20) was corrected with Envision. Data analysis and mapping was conducted by XLfit5 software.
The test compounds and the reference compound LW3018 were finally tested at concentrations ranging from […] to 0.51 nM, 3-fold gradient dilution, 10 concentrations, and two replicate wells.

T1 sequence (P14902 whole entry): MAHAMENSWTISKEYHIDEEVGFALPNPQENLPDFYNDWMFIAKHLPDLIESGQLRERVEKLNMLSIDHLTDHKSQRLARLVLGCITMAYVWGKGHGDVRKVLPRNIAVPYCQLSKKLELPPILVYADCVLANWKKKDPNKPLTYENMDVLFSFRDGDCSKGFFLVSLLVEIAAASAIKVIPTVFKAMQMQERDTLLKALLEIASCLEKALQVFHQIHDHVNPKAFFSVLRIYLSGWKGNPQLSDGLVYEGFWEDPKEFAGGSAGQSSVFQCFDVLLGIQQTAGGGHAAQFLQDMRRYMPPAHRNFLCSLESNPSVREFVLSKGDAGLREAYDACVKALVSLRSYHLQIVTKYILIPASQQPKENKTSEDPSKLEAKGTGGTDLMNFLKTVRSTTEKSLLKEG
T2 sequence (P14902 whole entry): as above

IC50 (IDO1 in Hela cells): 7.2 nM
IC50 (IDO1): 29.4 nM
SMILES: N=S(=O)(NCCNc1nonc1C(=NO)Nc1ccc(F)c(Br)c1)C1CC1 (stereo not drawn) [LW105-1-4]

IC50 (IDO1 in Hela cells): 11.1 nM
IC50 (IDO1): 26.5 nM
SMILES: CS(=N)(=O)NCCCNc1nonc1C(=NO)Nc1ccc(F)c(Br)c1 (stereo not drawn) [LW105-1-11]

Continued, compound first:

SMILES: CS(=N)(=O)NCCNc1nonc1C(=NO)Nc1ccc(F)c(Br)c1 (racemic) [LW105-1-1]
IC50 (IDO1 in Hela cells): 11.5 nM
AUC(0-t) ([1]; iv, 3 mg/kg, intravenous 3 mg/kg): 1430 ng·h/mL
AUC(0-t) ([1]; po, 30 mg/kg, oral gavage 30 mg/kg): 10100 ng·h/mL
AUC(0-t) ([1]; po, 100 mg/kg, oral gavage 100 mg/kg): 39400 ng·h/mL
half-life ([1]; mouse, 3 mg/kg, heading: T1/2, intravenous 3 mg/kg): 0.688 h
AUC(0-inf) ([1]; mouse, intravenous 3 mg/kg): 1450 ng·h/mL
C0 ([1]; mouse, intravenous 3 mg/kg): 2560 ng/mL
clearance ([1]; mouse, intravenous 3 mg/kg): 34.5 mL/min/kg
MRT last ([1]; mouse, intravenous 3 mg/kg): 0.904 h
Vd ([1]; mouse, intravenous 3 mg/kg, read-out: steady-state volume (Vdss)): 1.87 L/kg
AUC(0-inf) ([1]; mouse, oral gavage 30 mg/kg): 10100 ng·h/mL
Tmax ([1]; mouse, oral gavage 30 mg/kg): 0.5 h
bioavailability ([1]; mouse, oral gavage 30 mg/kg): 69.9%
Cmax ([1]; mouse, oral gavage 30 mg/kg): 4810 ng/mL
MRT last ([1]; mouse, oral gavage 30 mg/kg): 3.11 h
half-life ([1]; mouse, oral gavage 30 mg/kg, read-out: T1/2 (converted)): 2.7 h
AUC(0-inf) ([1]; mouse, oral gavage 100 mg/kg): 39300 ng·h/mL
Tmax ([1]; mouse, oral gavage 100 mg/kg): 0.25 h
bioavailability ([1]; mouse, oral gavage 100 mg/kg): 81.4%
Cmax ([1]; mouse, oral gavage 100 mg/kg): 20700 ng/mL
MRT last ([1]; mouse, oral gavage 100 mg/kg): 1.99 h
half-life ([1]; mouse, oral gavage 100 mg/kg, read-out: T1/2 (converted)): 2.11 h
tumor inhibition rate ([2]; mouse CT26 model, 300 mg/kg oral twice a day): 40.6%
anti-tumor growth effect ([2]; mouse CT26 model, 30, 100, 300 mg/kg oral): dose-dependent anti-tumor growth effect
IC50 (IDO1): 22.3 nM

SMILES: CCS(=N)(=O)NCCNc1nonc1C(=NO)Nc1ccc(F)c(Br)c1 (stereo not drawn) [LW105-1-2]
IC50 (IDO1 in Hela cells): 15.6 nM
IC50 (IDO1): 25.2 nM

SMILES: CC(C)S(=N)(=O)NCCNc1nonc1C(=NO)Nc1ccc(F)c(Br)c1 (stereo not drawn) [LW105-1-3]
IC50 (IDO1 in Hela cells): 12.7 nM
IC50 (IDO1): 19.4 nM
